What was measured:
[1] = test system: EGFR-mutant NSCLCs (PC9 and H1975); experiment: Apoptotic cell death by Annexin V/PI staining and flow cytometry; type: cell-based; settings: for rescue from glucose deprivation-induced apoptosis: glucose-free medium, 24 h, SP600125 15 μM; for apoptotic cell death: EGFR-mutant NSCLCs, 24 h treatment
Description: (§1) Apoptotic cell death was detected using an Annexin-V/FITC assay. Cells were harvested by trypsinization, washed with PBS, and resuspended in Annexin-V binding buffer (10 mM HEPES, pH 7.4, 140 mM NaCl, 2.5 mM CaCl2) containing Annexin-V FITC and propidium iodide. Stained cells were quantified and analyzed on a flow cytometer (BeckmanCoulter, Brea, Calif., USA).

PC9 cells [2] = experiment: Quantitation of intracellular ATP; type: cell-based; settings: MPYR or AKG 7 mM, 24 h
Description: Intracellular ATP concentrations were measured using an ATP Colorimetric/Fluorometric Assay Kit (Biovision Incorporated, Milpitas, Calif., USA) according to the manufacturer's instructions. Briefly, cells were lysed in […] of ATP assay buffer; 50 μL of supernatants were collected and added to a 96-well plate. To each well, 50 μL of ATP assay buffer containing ATP probe, ATP converter, and developer were added. Absorbance was measured at 570 nm.

PC9 cells [3] = experiment: TCA metabolite pools by LC-MS/MS; type: cell-based; settings: 2DG 10 mM or BPTES 10 μM
Description: Cells were grown to ˜60% confluence in growth media (RPMI1640, 10% FBS) on 10-cm dishes. After 24 hours, cells were harvested using 1.4 mL of cold methanol/H2O (80/20, v/v) after sequential PBS and H2O washes, and lysed; 100 μL of 5 μM internal standard was added. Metabolites were liquid-liquid extracted from the aqueous phase after adding chloroform. The aqueous phase was dried via vacuum centrifugation, and the sample was reconstituted with 50 μL of 50% methanol prior to LC/MS-MS analysis. The LC/MS-MS system was equipped with an Agilent 1290 HPLC (Agilent Technologies, Santa Clara, Calif., USA), Qtrap 5500 (ABSciex, Concord, Ontario, Canada), and reverse phase column (Synergi fusion RP 50×2 mm). A 3 μL volume was injected into the LC/MS-MS system and ionized with a turbo spray ionization source. Multiple reaction monitoring was used in negative ion mode, and the extracted ion chromatogram (EIC), corresponding to the specific transition for each metabolite was used for quantitation. The area under the curve of each EIC was normalized to that of the internal standard EIC. The peak area ratio of each metabolite to the internal standard was normalized using protein amount in a sample, and then was used for relative comparison.

[4] = test system: EGFR in EGFR-mutant NSCLCs; experiment: Western blot of EGFR levels, EGFR signaling and PARP/caspase-3 cleavage; type: cell-based; settings: for EGFR signaling (AKT and ERK phosphorylation) / EGFR levels / PARP and caspase-3 cleavage (apoptosis markers): EGFR-mutant NSCLCs, immunoblot
Description: (§2) Cells were lysed in RIPA lysis buffer containing protease inhibitor cocktail (Thermo Scientific, Waltham, Mass., USA); lysate concentrations were assayed using a BCA assay (Thermo Scientific). Equal amounts of lysates were mixed with Laemmli loading dye and boiled for 10 minutes. Lysates were subjected to SDS-PAGE, and separated proteins were transferred to PVDF membranes (EMD Millipore, Billerica, Mass., USA). Membranes were blocked in Tris-buffered saline (TBS) containing 5% nonfat dry milk and 0.1% Tween 20 (TBS-T) prior to overnight incubation with primary antibody at 4° C. After washing with TBS-T, blots were exposed to appropriate horseradish peroxidase-conjugated secondary antibodies for 1 hour. Proteins-antibody complexes were visualized on Kodak X-ray film using an enhanced chemiluminescence (ECL) detection system (Thermo Scientific, Waltham, Mass., USA).

[5] = test system: JNK in EGFR-mutant NSCLCs; experiment: Western blot for JNK and P-JNK; type: cell-based; settings: for JNK activation (P-JNK): EGFR-mutant NSCLCs, immunoblot
Description: as §2

[6] = test system: PC-9/GR and PC-9/ER cells; experiment: Western blot of JNK, EGFR signaling and apoptosis markers in EGFR-TKI-resistant cells; type: cell-based; settings: 24 h
Description: as §2

[7] = test system: PC9 and H1975 tumor cell xenografts; experiment: Xenograft studies, tumor volume; type: in vivo, SCID mice; settings: 2DG 500 mg/kg, intraperitoneal, 5 days a week for 2 weeks; compared with EGFR-WT (A549) xenografts
Description: Female severe combined immunodeficiency (SCID) mice were purchased from Charles River Laboratories. All experimental procedures were approved by the Institutional Animal Care and Use Committee of Asan Institute for Life Sciences (protocol 2015-14-241). For each animal, 2×10^6 cells mixed with Matrigel (BD Biosciences) were injected into the flank. Five mice per group were treated when the tumor volumes reached 50 to 100 mm^3 with anisomycin (5 mg/kg, intratumoral, 5 days a week) or 2-deoxy-D-glucose (2DG) 500 mg/kg, intraperitoneal, 5 days a week) for 2 weeks. The length (L) and width (W) of each tumor were measured using calipers, and the tumor volume (TV) was calculated as TV=(L×W^2)/2. To evaluate EGFR-related signaling in xenograft tumors, tumors were harvested after 3 days of drug treatment, lysed, and analyzed with Western blotting.

[8] = test system: pentose phosphate pathway; experiment: NADP+/NADPH ratios; type: cell-based; settings: data not shown
[9] = test system: IGF1R and MET in EGFR-mutant NSCLCs; experiment: Western blot of other receptor tyrosine kinases; type: cell-based; settings: 2DG 10 mM, 24 h
Description: as §2

EGFR-mutant NSCLCs [10] = experiment: Autophagy: LC3-II immunoblot and GFP-LC3 puncta; type: cell-based; settings: 2DG 10 mM or anisomycin 5 μM, 24 h
Description: as §2

[11] = test system: EGFR-WT NSCLCs (A549 and H1299); experiment: Apoptotic cell death by Annexin V/PI staining and flow cytometry; type: cell-based; settings: 24 h treatment
Description: as §1

[12] = test system: PC-9/GR and PC-9/ER cells; experiment: Apoptotic cell death by Annexin V/PI staining and flow cytometry in EGFR-TKI-resistant cells; type: cell-based; settings: PC-9/GR and PC-9/ER cells (T790M), 24 h
Description: as §1

EGFR = EGFR transcriptional level; type: cell-based
Description: Total RNA was extracted using TRIzol (Invitrogen, Carlsbad, Calif., USA). cDNA was synthesized from 2 μg of total RNA, using oligo-dT and MMLV HP reverse transcriptase (Epicentre, Madison, Wis., USA) according to the manufacturer's instruction. qRT-PCR was performed on an AriaMax Real-Time PCR instrument (Agilent Technologies, Santa Clara, Calif., USA) using the SYBR detection protocol. cDNA was calculated by the comparative Ct method, with 18S ribosomal RNA as a control. PCR reactions were performed in triplicates.

EGFR-mutant NSCLCs [13] = experiment: ROS quantification (DCFDA and MitoSox Red); type: cell-based; settings: 2DG 10 mM or rotenone 5 μM, 24 h
Description: To determine cytoplasmic ROS, cells were incubated with 2′,7′-dichlorodihydrofluorescein diacetate (DCFDA, 5 μM; Invitrogen, Carlsbad, Calif., USA) for 30 minutes. Excess DCFDA was removed by washing cells twice with PBS at room temperature; labeled cells were trypsinized, rinsed, and resuspended in PBS. The oxidation of DCFDA to the highly fluorescent 2′,7′-dichloro-fluorescein (DCF), which is proportionate to ROS generation, was analyzed by flow cytometry. To analyze mitochondrial ROS, the cells were then incubated with 5 μM MitoSOX™ reagent (Thermo Scientific, Waltham, Mass., USA) for 10 minutes at 37° C. and trypsinized, washed with PBS, and then resuspended in 200 μL of PBS. Stained cells were then quantified and analyzed on a flow cytometer (BeckmanCoulter, Brea, Calif., USA). Excitation wavelength was 510 nm, and emission wavelength was 580 nm.

SMILES: O=C(O)CCC(=O)C(=O)O [α-ketoglutarate]
- rescue from glucose deprivation-induced apoptosis ([1]; MPYR or AKG 7 mM, NAC 4 mM): rescue EGFR-mutant NSCLCs from glucose deprivation-induced apoptosis
- recovery of ATP levels reduced by glucose deprivation (PC9 cells [2]): significant recovery of ATP levels

SMILES: O=C(Cc1ccccc1)Nc1nnc(CCSCCc2nnc(NC(=O)Cc3ccccc3)s2)s1 [BPTES]
- levels of TCA cycle intermediates (PC9 cells [3]): no significant inhibitory effect
- EGFR signaling (AKT and ERK phosphorylation) [4]: had no effect on EGFR signaling

SMILES: OO [H2O2, hydrogen peroxide]
- JNK activation (P-JNK) [5]: activated JNK in a dose-dependent manner
- apoptotic cell death [1]: activated apoptosis in EGFR-mutant NSCLCs in a dose-dependent manner
- EGFR levels [4]: markedly reduced the EGFR levels
- EGFR signaling (AKT and ERK phosphorylation) [4]: inhibited the AKT and ERK phosphorylation
- PARP and caspase-3 cleavage (apoptosis markers) [4]: cleaved the PARP and caspase-3 in a dose-dependent manner

SMILES: O=CC[C@@H](O)[C@H](O)[C@H](O)CO [2DG, 2-deoxy-D-glucose]
- JNK activation ([6]; 2DG 10 mM): markedly activated JNK
- EGFR level, AKT and ERK phosphorylation, PARP and caspase-3 cleavage [6]: EGFR level reduction, AKT and ERK phosphorylation inhibition, and PARP and caspase-3 cleavage
- tumor growth of xenografts [7]: robustly diminished the growth
- levels of TCA cycle intermediates (PC9 cells [3]): significantly decreased
- NADP+/NADPH ratios [8]: no significant effect
- IGF1R phosphorylation [9]: significantly decreased
- MET phosphorylation [9]: marginally decreased
- total form of IGF1R and MET [9]: did not change
- LC3-II levels (EGFR-mutant NSCLCs [10]): significant increase in LC3-II levels
- number of GFP-LC3 puncta (EGFR-mutant NSCLCs [10]; PC9 cells expressing GFP-LC3): profoundly increased
- apoptotic cell death [11]: only in EGFR-mutant NSCLCs
- apoptotic cell death [1]: promoted apoptosis
- EGFR levels [4]: robust reduction of EGFR levels
- EGFR signaling (AKT and ERK phosphorylation) [4]: inhibition of EGFR signaling
- PARP and caspase-3 cleavage (apoptosis markers) [4]: leading to apoptosis
- EGFR levels upon ATG7 knockdown ([4]; cells expressing ATG7 shRNAs, 2DG 10 mM or anisomycin 5 μM, 24 h): did not reduce EGFR levels
- apoptosis [12]: significant induction of apoptosis
- EGFR transcriptional level (EGFR): no significant effect
- cytoplasmic and mitochondrial ROS levels (EGFR-mutant NSCLCs [13]): significant increases

SMILES: C=C(C)[C@H]1Cc2c(ccc3c2O[C@@H]2COc4cc(OC)c(OC)cc4[C@@H]2C3=O)O1 [rotenone]
- JNK activation (P-JNK) [5]: significantly induced JNK activation in both dose- and time-dependent manners
- apoptotic cell death [1]: rotenone-mediated apoptosis
- EGFR levels [4]: robustly decreased EGFR levels in both dose- and time-dependent manners
- cytoplasmic and mitochondrial ROS levels (EGFR-mutant NSCLCs [13]): significant increases

SMILES: CC(=O)N[C@@H](CS)C(=O)O [NAC, N-acetyl-L-cysteine]
- JNK activation induced by glucose deprivation, 2DG, or rotenone treatment ([5]; NAC 4 mM, 24 h): completely inhibited
- inhibition of anisomycin-induced JNK activation ([5]; anisomycin with NAC (FIG. 10c)): could not
- rescue from 2DG treatment-induced apoptotic cell death ([1]; 2DG 10 mM, MPYR or AKG 7 mM, NAC 4 mM): significantly rescued cell death
- rescue from anisomycin-induced cell death ([1]; anisomycin 24 h in absence or presence of NAC (FIG. 10a)): did not rescue
- rescue from glucose deprivation-induced apoptosis ([1]; MPYR or AKG 7 mM, NAC 4 mM): significantly rescued cell death
- rescue from rotenone-mediated apoptosis ([1]; rotenone 5 μM, methyl-pyruvate or NAC 4 mM): significantly rescued cell death
- EGFR levels and AKT and ERK phosphorylation following glucose deprivation, 2DG, or rotenone treatment ([4]; NAC 4 mM, 24 h): significant recovery
- PARP and caspase-3 cleavage upon glucose deprivation, 2DG, or rotenone treatment ([4]; NAC 4 mM, 24 h): significantly inhibited
- recovery of anisomycin-decreased EGFR signaling or EGFR levels ([4]; anisomycin with NAC (FIG. 10b)): could not recover

SMILES: CCN(CC)CCCC(C)Nc1ccnc2cc(Cl)ccc12 (centres unmarked) [chloroquine]
- PARP and caspase-3 cleavage upon glucose deprivation, 2DG, or anisomycin treatment ([4]; chloroquine 10 μM, 24 h): robustly inhibited
- reduction in EGFR levels caused by glucose deprivation, 2DG, or anisomycin treatment ([4]; in the presence of chloroquine, 24 h): dramatically inhibited

SMILES: OC[C@H]1O[C@H](O[C@H]2O[C@H](CO)[C@@H](O)[C@H](O)[C@H]2O)[C@H](O)[C@@H](O)[C@@H]1O [trehalose]
- EGFR levels [4]: significantly induced EGFR degradation in a dose-dependent manner

Source: patent US20200121645A1, “COMPOSITION FOR PREVENTING OR TREATING EGFR-MUTANT NON-SMALL CELL LUNG CANCER” (THE ASAN FOUNDATION, priority 2018, published 2020)
